From patent US20170173114A1, “METHODS AND COMPOSITIONS FOR INDUCTION OF UCP1 EXPRESSION” (Joslin Diabetes Center, Inc., priority 2014, published 2017)

Test system: UCP1
Assay: UCP1 mRNA expression (Q-RT-PCR) in WT-1 brown preadipocytes
Format: cell-based, murine
Settings: WT-1, 24 hours; vs vehicle
Method: Total RNA was isolated with QIAzol lysis reagent (Qiagen, Valencia, Calif.) and purified by RNeasy Mini columns (Qiagen) following the manufacture's instructions. cDNA was prepared from total RNA using the Advantage RT-PCR kit (BD Biosciences, Palo Alto, Calif.) according to manufacturer's instructions. Diluted cDNA was used in a PCR reaction with SYBR Green Master Mix (Applied Biosystems, Foster City, Calif.) and primers specifically designed for detection of the gene of interest. PCR reactions were run in duplicate for each sample and quantitated in the ABI Sequence Detection System (Applied Biosystems). Data were expressed as arbitrary units after normalization to levels of expression of internal controls for each sample. Sequences of primers for specific genes are each obtained from the published literature or designed using publically available gene sequence databases. Unless otherwise indicated, gene expression data described in the examples below was obtained using QPCR.
The effect of FGF6 on differentiation of WT-1 murine brown preadipocytes was also examined. WT-1 cells can be induced to undergo brown adipocyte differentiation, characterized by lipid accumulation and expression of adipogenic and brown fat markers, as described above (Klein et al. (1999) J Biol Chem 274:34795; Tseng et al. (2005) Nat Cell Biol 7:601). WT-1 cells were treated with FGF6 in growth media (DMEM+10% FBS), a vehicle control (“control” or “C” referred to in FIGS. 3A-D), or induction media (“induction” or “I” referred to in FIGS. 3A-D) as described above for seven days. Following the treatment, cells were examined for the color of the culture media in combination with oil Red O staining, expression of adipogenic markers, expression of brown fat markers, immunofluorescent staining of cells with UCP1 and DPAI, and Western blot analysis to determine the presence of UCP1 and β-tubulin. The results are described in FIGS. 3A to 3D.
UCP1 mRNA expression in brown adipocyte cells was determined at FGF6 concentrations ranging from 0 to 300 ng/ml in the absence of induction cocktail.
In order to determine the length of time necessary to induce UCP1 expression upon exposure to of cells to FGF6, an experiment was performed whereby FGF6 was administered to brown preadipocytes at a concentration of 200 ng/ml and UCP1 expression was determined. FGF21 and a control were also used in the time course experiment. FGF21, a member of the endocrine FGF ligands that has been implicated in the browning of white fat (Fisher F. M. et al., Genes Dev. 26:271-281, 2012). […] FGF6 could acutely induce a significant increase of UCP1 expression as early as 4 hours after a 200 ng/ml dose, as described in FIG. 4B. At 24 hours, the fold-induction of UCP1 mRNA by FGF6 reached 700-fold higher than the untreated cells, as described in FIG. 4B.
To assess FGF6's role in the regulation of mitochondrial activity, FGF6 was stably expressed in WT-1 brown preadipocytes and 3T3-F442A white preadipocytes. Stable cells were generated by viral infection followed by drug selection.
FGF2, FGF6 and FGF9 were used at a dosage of 50 ng/mL, 100 ng/mL, 200 ng/mL or 300 ng/mL. FGF21 was used at the dosage of 50 ng/ml and 500 ng/mL. The concentration of BMP7 was 3.3 nM. RNA was isolated and UCP1 and PPARγ expression levels were evaluated by quantitative reverse transcription polymerase chain reaction (Q-RT-PCR) analysis after 24 hours (i.e., 1 day) (FIG. 14A), 2 days (FIG. 14B), 5 days (FIG. 14C) and 7 days (FIG. 14D) of treatment. All experiments were performed triplicate and the data are presented as mean+/−SEM.
FGF2, FGF6 and FGF9 were used at a dosage of 200 ng/mL. FGF21 was used at a dosage of 500 ng/mL. The concentration of BMP7 was 3.3 nM. mRNA was isolated and UCP1 and PPARγ expression levels were evaluated by quantitative reverse transcription polymerase chain reaction (Q-RT-PCR) analysis after 24 hours (i.e., 1 day), 2 days, 5 days and 7 days of treatment (FIG. 15). […]

SMILES	UCP1 mRNA expression
CCCCC[C@H](O)/C=C/[C@@H]1[C@H]2C/C(=C/CCCC(=O)O)O[C@H]2C[C@H]1O [PGI2, reference compound]	significantly induced
CCCCC[C@H](O)/C=C/[C@H]1[C@H](O)CC(=O)[C@@H]1C/C=C\CCCC(=O)O [PGE2, reference compound]	significantly induced
